Reference: patent US4959359A, “Phenyl-thiazepinones as calcium regulating agents” (Hoffmann-La Roche Inc., priority 1989, dated 1990)
Counter-ions that a name gives are not always drawn.

System: isolated rat aortic strips
Test: Contraction of rat aortic strips: inhibition of Ca++-induced contracture (calcium channel blocking activity)
Assay type: cell-based
Settings: for inhibition at 0.3 µM: Rattus norvegicus, read-out: % Inhibition (contractile response at 2 mM Ca++ as compared to the control), heading: % Inhibition, 3×10^-7 M, 15 minutes prior to and during the calcium curve, depolarizing K+ 45 mM, diltiazem n = 10, A-D n = 1
Description: The calcium channel blocking activity of compounds of formula I was determined by measuring the effect of compounds of formula I on isolated rat aortic strips.
Aortas were excised from rats, placed in Krebs-Henseleit solution, modified so as to be calcium free, with a depolarized level of potassium (45 mM), and 0.02 mM EDTA. The aorta was then helically cut into a strip about 2 mm wide. This strip was then divided into four equal segments about 15 mm in length, which were hung in isolated tissue chambers, attached to the appropriate tranducers and subjected to 500 mg basal tension. After a period of stabilization under these conditions, calcium was introduced into the bath and the tissues contracted in a concentration dependent manner.
When no calcium is available in the bathing media, and the potential dependent calcium channels are opened by the high potassium level, contractility is dependent on the level of calcium introduced into the bath. By adding increments of calcium into the bath, a reproducible concentration-dependent contracture can be obtained. Treatment with a calcium channel blocker, such as diltiazem, or a compound of the invention results in an inhibition of this contractile response.
Each number in the table below was derived by first adding calcium alone to tissue and measuring contracture, and then adding calcium to tissue that had been exposed to 3×10^-7 M of the compound to be tested and measuring contracture. The number for untreated controls was derived by measuring contracture for two runs where calcium alone was added.
A compound tested was placed in the bath at 3×10^-7 M for 15 minutes prior to, and during the acquisition of the concentration-dependent curve to calcium for that particular compound. The inhibition in contractile response at 2 mMCa++ was measured as a per cent inhibition as compared to the control. The effects on the 2 mM Ca++ contracture are as follows:
That is, compound A inhibited almost three quarters of the contracture observed for the control at 2 mM Ca++. As used above, compounds A, B, C, and D are as follows: […]

| SMILES | inhibition at 0.3 µM [%] | responsiveness to 2 mM Ca++ (15 minute exposure at 3×10^-7 M) |
| --- | --- | --- |
| COc1ccc([C@H]2SC(c3ccccc3)=C(C)N(CCN(C)C)C(=O)[C@H]2OC(C)=O)cc1 (racemic) [Compound A, cis-rac.-6-(acetyloxy)-6,7-dihydro-7-(4-methoxyphenyl)-3-methyl-4-[2-(dimethylamino)ethyl]-2-phenyl-1,4-thiazepin-5(4H)-one (E)-2-butenedioate] | 73.4 | – |
| COc1ccc([C@@H]2SC(c3ccccc3)=C(C)N(CCN(C)C)C(=O)[C@H]2OC(C)=O)cc1 (relative stereo) [D, trans-rac.-6-(acetyloxy)6,7-dihydro-7-(4-methoxyphenyl)-3-methyl-4-[2-dimethylamino)ethyl]-2-phenyl-1,4-thiazepin-5(4H)-one hydrochloride] | 13.4 | – |
| COc1ccc([C@H]2SC(c3ccccc3)=C(C)N(CCN(C)C)C(=O)[C@H]2OC(C)=O)cc1 [C, (-)-cis-6-(acetyloxy)-6,7-dihydro-7-(4-methoxyphenyl)-3-methyl-4-[2-dimethylamino)ethyl]-2-phenyl-1,4-thiazepin-5(4H)-one [R-(R*,R*)]-2,3-dihydroxybutanedioic acid sesquihydrate] | 3.8 | – |
| COc1ccc([C@@H]2SC(c3ccccc3)=C(C)N(CCN(C)C)C(=O)[C@@H]2OC(C)=O)cc1 [Compound B, (+)-cis-6-(acetyloxy)-6,7-dihydro-7-(4-methoxyphenyl)-3-methyl-4-[2-dimethylamino)ethyl]-2-phenyl-1,4-thiazepin-5(4H)-one [S-(R*,R*)]-2,3-dihydroxybutanedioic acid hydrate] | 88.3 | – |
| COc1ccc([C@@H]2Sc3ccccc3N(CCN(C)C)C(=O)[C@@H]2OC(C)=O)cc1 [Diltiazem, reference compound] | 71.1 | marked reduction in responsiveness |
